Reference: patent US9671415B2, “Immunoassay for pyrrolidinophenones” (RANDOX LABORATORIES LIMITED, priority 2014, dated 2017)
In brackets after ≈: the same amount, converted by molar mass. Several values for one entry are separate records, joined by “and”; a condition that tells them apart may be missing. Equal values may be shown once. Where a name gives a salt, the structure may show the parent alone.

Legend:
Antibody-1B = test: Competitive ELISA for pyrrolidinophenones, Antibody-1B with Tracer-1 (Example 10); format: binding, sheep; details: Antibody-1B coated at 2.5 μg/ml, Tracer-1 at 1/128k; for IC50 / % Cross-Reactivity: Table 2; for % Cross-Reactivity: relative to α-PVP = 100
Description: The purified polyclonal antibody from Example 9 (Antibody-1B) was immobilised on a 96 well ELISA plate at 2.5 μg/ml in 10 mM TRIS buffer, pH 8.5 overnight at 4° C. The assay is based on competition for binding sites of a polyclonal antibody between HRP tracer (Tracer-1) and α-PVP or potential cross-reactants. The plate was washed (×3) with TBST (Tris-Buffered Saline/Tween solution) and the calibrator (α-PVP) or potential cross reactants added (50 μl per well), followed by HRP tracer (Tracer-1) (75 μl/well) to the appropriate wells. The plates were then incubated for 60 minutes at 25° C. They were then subjected to 2 quick wash cycles using TBST, followed by 4×2 minute wash cycles. 125 μl of signal (TMB) was then added to each well for 20 mins at room temperature in the dark. The reaction was stopped by the addition of 125 μl of 0.2 M sulphuric acid per well and the plates read immediately at 450 nm. Calibration curves were generated using α-PVP and these were used to determine the sensitivity and specificity of the immunoassay for potential cross-reactants. The data was inputted to a computer program called KC Junior (Biotek). It gives a 4 parameter fit curve and allows the calculation of concentrations between the standard runs. This program is used to calculate the IC50 values by dividing the 0 ng/ml optical density (OD) value by 2 and obtaining the concentration value from the curve for this OD. The results of this study are presented in Tables 1 and 2, cross-reactivity being calculated according to the following formula: % CR=[…]/IC50 CR×100 wherein % CR is the percentage cross-reactivity, IC50 α-PVP is the concentration of α-PVP which causes 50% displacement of signal and IC50 CR is the concentration of potential cross-reactant that causes 50% displacement of signal.
Antibody-1B (Example 9) used to generate the data in the tables below was raised from Immunogen-1B (Example 7) and the HRP tracer (Tracer-1) was prepared as in Example 8. All of the compounds in Table 2 are commercially available from suppliers such as Cayman Chemical (Ann Arbor, Mich., USA).

α-PVP antibody = test: α-PVP/MDPV ELISA kit validation assay (Example 11); format: binding; details: for % Cross-Reactivity: α-PVP/MDPV ELISA kit specificity, relative to α-PVP = 100, Table 10; for % CR: calculated with reference to the standard of that run; for Reactant IC50: standard concentration which produced 50% B/B0 in that run
Description: A microtitre plate was precoated with α-PVP antibody. α-PVP (antigen), if present in the sample competes with the horseradish peroxidase labelled α-PVP (enzyme labelled antigen) for a limited number of antibody sites on the microtitre plate. After incubation at room temperature to allow a competition reaction to take place, the microtitre plate was washed to remove excess reagents. The enzyme substrate was added. After an incubation period to allow maximum colour development, the colour reaction was stopped by the addition of acid. This produces a colour change from blue to yellow, and the absorbances are read at 450 nm. A standard curve was then constructed to determine the α-PVP concentration in the sample.
2. Urine samples were diluted 1:50 with diluent (I.e. 10 μl sample+490 μl diluent).
• 1. Whole blood samples were diluted 1:50 with diluent (i.e. 10 μl sample+490 μL diluent). • 2. The sample was mixed gently by pipetting without the formation of foam. Procedure
The assay was performed in duplicate. The layout of Table 4 was used where each box represents 2 wells:
a) Table 5 details what was pipetted into the appropriate wells of the microtitre plate:
b) The microtitre plate was gently tapped from side to side for a few seconds. c) The microtitre plate was covered with a plate sealer before incubating for 30 minutes at room temperature (+15° C. to +25° C.) in the dark. d) The plate was inverted and the liquid tapped out liquid. e) The plate was washed 6 times with diluted wash buffer (ensuring all wells were filled), over a 10-15 minute period. After the final wash the liquid was discarded liquid and the plate was tapped onto lint free tissue paper until completely dry. f) Immediately after washing, one 125 μl shot of substrate was pipetted into each well using a multichannel pipette. The microtitre plate was gently tapped from side to side and incubated for 20±2 minutes at room temperature (+15 to +25° C.) in the dark. g) The colour reaction was stopped by the addition of 100 μl of stop solution per well. A colour change from blue to yellow resulted. h) The optical density was measured at 450 nm within 10 minutes of stopping the colour reaction. The use of a 630 nm filter was used as the reference wavelength. […] Assay Cut-Off
Equally, pyrrolidinopentiothiophenone and mdpbp were assessed in the same run; and mdppp and α-pyrrolidinopropiophenone were assessed in the same run. […] The Reactant IC50s (i.e. ^2 in the table above) are the standard concentrations which produced 50% B/B0 in that run. The % CR (last column in the table above) is calculated with reference to the standard used in that particular run.

Antibodies in EP2626358 = details: immunoassay of EP2626358; cited from earlier work
[1] = unit not given, Table 11, in ng/mL

| SMILES | IC50 (Antibody-1B) [ng/mL] | % Cross-Reactivity (Antibody-1B) [%] | % Cross-Reactivity (α-PVP antibody) [%] | % CR (α-PVP antibody; Table 11) [%] | Reactant IC50 (α-PVP antibody; [1]) | also measured |
| --- | --- | --- | --- | --- | --- | --- |
| Cc1ccc(C(=O)C(C)N2CCCC2)cc1 (racemic) [4′-Methyl-α-pyrrolidinopropiophenone] | >10 | <3.150 | 1.8 | – | – | – |
| CC(C(=O)c1ccc2c(c1)OCO2)N1CCCC1 (stereo not drawn) [3′,4′-Methylenedioxy-α-pyrrolidinopropiophenone] | – | – | 0.8 | 0.8 | 17.727 | – |
| CCCCCCC(C(=O)c1ccc(F)cc1)N1CCCC1.Cl (stereo not drawn) [4-Fluoro-PV9 HCl, 1-(4-fluorophenyl)-2-(pyrrolidin-1-yl)octan-1-one, monohydrochloride] | – | – | 3.2 | – | – | – |
| CNC(C)C(=O)c1ccc(F)cc1 (stereo not drawn) [4-Fluoromethcathinone, 4-fluoro-N-methylcathinone] | – | – | <1 | – | – | – |
| CCCCCC(C(=O)c1ccc(OC)cc1)N1CCCC1.Cl (stereo not drawn) [4-Methoxy-PV8 HCl, 1-(4-methoxyphenyl)-2-(pyrrolidin-1-yl)heptan-1-one, hydrochloride] | – | – | 11.7 | – | – | – |
| CCCC(C(=O)c1ccc(OC)cc1)N1CCCC1 (stereo not drawn) [4-Methoxy-α-pyrrolidinopentiophenone, 4′-Methoxy-α-pyrrolidinopentiophenone] | 0.233 (≈ 0.891 nM) | 135.193 | – | – | – | – |
| CCCCC(C(=O)c1ccc(C)cc1)N1CCCC1 (stereo not drawn) [4′-Methyl-α-pyrrilidinohexylphenone] | – | – | 38.1 | – | – | – |
| CCC(C(=O)c1ccc(C)cc1)N1CCCC1 (stereo not drawn) [4′-Methyl-α-pyrrolidinobutiophenone] | – | – | 23.2 | – | – | – |
| CCC(NC)C(=O)c1ccc2c(c1)OCO2 (stereo not drawn) [Butylone, 1-(1,3-benzodioxol-5-yl)-2-(methylamino)butan-1-one] | – | – | <1 | – | – | – |
| CCC(C(=O)c1ccc2c(c1)OCO2)N1CCCC1 (stereo not drawn) [MDPBP, 3′,4′-Methylenedioxy-α-pyrrolidinobutiophenone] | 1.532 (≈ 5.86 nM) | 20.561 | 17.2 | 17.2 | 1.044 | – |
| CCCC(C(=O)c1ccc2c(c1)OCO2)N1CCCC1 (stereo not drawn) [MDPV, 3′,4′-Methylenedioxy-α-pyrrolidinopentiophenone] | 0.176 (≈ 0.639 nM) | 178.977 | 93.3 | 93.3 | 0.164 | – |
| CNC(C)C(=O)c1ccc(C)cc1 (stereo not drawn) [Mephedrone] | – | – | <1 | – | – | – |
| CNC(C)C(=O)c1ccc(OC)cc1 (stereo not drawn) [Methedrone] | – | – | <1 | – | – | – |
| CNC(C)C(=O)c1ccc2c(c1)OCO2 (stereo not drawn) [Methylone] | – | – | <1 | – | – | – |
| CCCC(C(=O)c1ccc2ccccc2c1)N1CCCC1 (stereo not drawn) [Naphyrone, 1-(naphthalen-2-yl)-2-(pyrrolidin-1-yl)pentan-1-one] | 0.221 (≈ 0.785 nM) | 142.534 | 70.2 | 70.2 | 0.218 | – |
| CCCC(NC)C(=O)c1ccc2c(c1)OCO2 (stereo not drawn) [Pentylone, 1-(1,3-benzodioxol-5-yl)-2-(methylamino)pentan-1-one] | – | – | <1 | – | – | – |
| CCCC(C(=O)c1ccc(C)cc1)N1CCCC1 (stereo not drawn) [Pyrovalerone, 4-Methyl-α-pyrrolidinopentiophenone] | 0.168 (≈ 0.685 nM) | 187.500 | 125.4 | 125.4 | 0.122 | – |
| CCCC(C(=O)c1ccccc1)N1CCCC1 (stereo not drawn) [α-PVP, α-Pyrrolidinovalerophenone] | 0.315 (≈ 1.36 nM) | 100 | 100 | 100 | 0.153 | IC50 (standard concentration which produces 50% B/B0) (Antibody-1B; standard α-PVP, Table 1): 0.315 ng/mL (≈ 1.36 nM); STD IC50 (α-PVP antibody; IC50 of the standard (alpha-pvp) in the same run as the reactant of the line, unit not given, Table 11, in ng/mL): 0.18 and 0.153 and 0.149; cross-reactivity (Antibodies in EP2626358): very low |
| CCCC(C(=O)c1cccs1)N1CCCC1 (stereo not drawn) [α-Pyrrolidinopentiothiophenone HCl, α-Pyrrolidinopentiothiophenone] | – | – | 73.2 | 73.2 | 0.246 | – |
| CC(C(=O)c1ccccc1)N1CCCC1 (stereo not drawn) [α-Pyrrolidinopropiophenone] | >10 | <3.150 | 0.8 | 0.8 | 18.744 | – |
